Data from US20210261507A1, “Crystalline Form of Fluopyram” (Bayer Aktiengesellschaft, priority 2018, published 2021).
Several values for one entry are separate records, joined by “and”; a condition that tells them apart may be missing. Equal entries are not always repeated.

How the values were obtained:
Format in all cases: physicochemical
[1] = Aspect ratio of crystals measured from microscopic images of suspension concentrate formulations; conditions: for Aspect ratio, mean: mean of 10 crystals, tables 5.1 to 5.4; for Crystal shape (FIGS. 3a-3d): microscopic images
Protocol: In an example the aspect ratio for crystals of fluopyram and other different active ingredients was measured from microscopic images taken from suspension concentrate formulations after crystal growth had occurred, diluted to approximately 1% in water. For the purpose of this invention the length is defined as the longest dimension and the width as the shortest dimension of a 2-dimensional image obtained in a transmission optical microscope. The aspect ratio was determine by the dividing the length by the width.

[2] = Ageing of fluopyram suspension concentrate, crystal habit; conditions: 500 g/L suspension concentrate, 1 month at 40 to 45° C.
Protocol: In an example 500 g/L of fluopyram crystalline active ingredient was added to a mixture of 65 g/L wetters and dispersants, 80 g/L propylene glycol, 2 g/L silicone antifoam in 432 g/L with high shear mixing (Ultra-Turrax®) to reduce the particle size D(v,0.9) to approximately 50 microns, then passed through a bead mill (Eiger® 250 Mini Motormill) to achieve a particles size D(v,0.9) typically 1 to 15 microns. Then a gel composed of 2.4 g/L xanthan and 1 g/L biocide in 117 g/L water was added with low shear mixing (stirrer).

[3] = EC formulation diluted in water and evaporated on the leaf surface, crystal habit; conditions: dilution at 1% in water
Protocol: In an example an EC formulation was prepared by dissolving 1 to 500 g/L of fluopyram in a mixture comprising a certain amount of emulsifiers and a certain amount of solvent.

[4] = Table 6, crystals present in suspension concentrate formulations, from tables 5.1 to 5.4

Compound | Aspect ratio [1, 4] | Aspect ratio, mean [1] | Crystal shape (FIGS. 3a-3d) [1] | Crystal appearance after ageing [2] | Crystals produced after dilution and evaporation [3] | Aspect ratio ([1]; single crystals, length divided by width)
O=C(NCCc1ncc(C(F)(F)F)cc1Cl)c1ccccc1C(F)(F)F [fluopyram, N-{2-[3-chloro-5-(trifluoromethyl)-2-pyridyl]ethyl}-α,α,α-trifluoro-o-tolu amide] | 12.02 | 12.02 | needle-like habit | needle-like appearance | needle shaped crystals | 
Cc1cc(C)nc(Nc2ccccc2)n1 [pyrimethanil] | 1.44 | 1.44 | cubic shaped forms |  |  | 
CC(C)(C)C(O)(CCc1ccc(Cl)cc1)Cn1cncn1 (stereo not drawn) [tebuconazole] | 1.15 | 1.15 | cubic shaped forms |  |  | 1.00 and 1.20 and 1.30 and 1.02 and 1.22 and 0.83 and 1.07 and 1.44
CON=C(C(=O)OC)c1ccccc1CON=C(C)c1cccc(C(F)(F)F)c1 [trifloxystrobin] | 1.25 | 1.25 | cubic shaped forms |  |  | 
